Structures can show the parent of a compound that is named as a salt. Where two headings read alike, the source gives them in different places.
Legend:
SUDHL5 [1] = experiment: Induction of caspase-3/7 activity (Assay 4), SUDHL5; type: cell-based; conditions: SUDHL5 cells
Outline: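 DLBCL cells treated with compounds for 3 hours at 37° C. Caspase-3/7 activity measured by Caspase-Glo 3/7 luminescence, with medium-only background subtracted.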

SUDHL10 [2] = experiment: Induction of caspase-3/7 activity (Assay 4), SUDHL10; type: cell-based; conditions: SUDHL10 cells
Outline: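 Luminescent Caspase-Glo 3/7 read-out after a 3 h, 37 °C compound exposure of the DLBCL line SUDHL10. Values are background-corrected using medium-only wells.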

SUDHL5 [3] = experiment: Antiproliferation assay 7, SUDHL5; type: cell-based; conditions: SUDHL5 cells, CellTiter-Glo, read-out: Antiproli SUDHL5 IC50 (median)
Outline: (§1)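 Proliferation over 72 h at 37° C was assessed by luminescent cell viability reagent, referenced to a day 0 plate.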

SUDHL10 [4] = experiment: Antiproliferation assay 7, SUDHL10; type: cell-based; conditions: Homo sapiens, SU-DHL10, 72 h, SUDHL10 cells, CellTiter-Glo, read-out: Antiproli SUDHL10 IC50 (median)
Method: (§2) Assessment of the Anti-Proliferative Effect of Compounds in Different Cell Lines
(§3) The impact of compounds on the proliferation of different cell lines was assessed using the CellTiter-Glo® Luminescent Cell Viability reagent from Promega (G7573).
(§4) In parallel, cells were plated in a reference (day 0) plate for time zero determination.
(§5) Rim wells were excluded. The cells were incubated for 72 hours in a humidified incubator at 37° C. The day 0 plate was measured by adding 30 μL/well of CTG solution (CellTiter-Glo® Luminescent Cell Viability reagent, Promega G7573) to time zero wells in the reference plate followed by a 10 minutes incubation and luminescence reading at 0.1 ms. using the PHERAstar FS microplate reader (BMG Labtech).
(§6) After 72 hours incubation, the treated plates were measured in the same way as the day 0 plate mentioned above.

SUDHL5 [5] = experiment: Induction of cytotoxicity (Assay 6), SUDHL5
Method: Assay 6 Induction of Cytotoxicity Upon Treatment of Cells with Selected Compounds
Therefore, cytotoxicity assays were run in parallel in SUDHL5 and SUDHL10 cells.
The different cell lines were plated in culture medium (RPMI 1640 [GIBCO #22400-089]supplemented with 10% Fetal Bovine Serum) at a density of 3,300 cells in 30 μL/well in a sterile, solid black, flat bottom, polystyrene, TC-treated 384-well microplate (Corning #3571) using Multidrop Combi Reagent Dispenser. As a control, medium without cells was also added to the plate. Cells were incubated in a humidified incubator at 37° C. overnight. […] Rim wells were excluded. The cells were incubated for 5 hours in a humidified incubator at 37° C. After this incubation, 30 μL of CellTiter-Glo® Luminescent Cell Viability reagent (Promega, G7573) was added to each well using the Multidrop Combi Reagent Dispenser, followed by 15 minutes incubation on a shaker at room temperature. Finally, luminescence was read at 0.1 ms, with a gain of 3000 using the PHERAstar FS microplate reader (BMG Labtech).

MCL-1 = MCL-1 (Homo sapiens (Human), UniProt Q07820, K194A/K197A/R201A); experiment: Protein-protein interaction assay MCL-1/Noxa BH3 peptide (MCL-1 Assay, TR-FRET); type: binding; conditions: read-out: MCL-1 Assay IC50 (median)
Chain of MCL-1 (Q07820 whole entry K194A/K197A/R201A, looked up, the tested form may be a part): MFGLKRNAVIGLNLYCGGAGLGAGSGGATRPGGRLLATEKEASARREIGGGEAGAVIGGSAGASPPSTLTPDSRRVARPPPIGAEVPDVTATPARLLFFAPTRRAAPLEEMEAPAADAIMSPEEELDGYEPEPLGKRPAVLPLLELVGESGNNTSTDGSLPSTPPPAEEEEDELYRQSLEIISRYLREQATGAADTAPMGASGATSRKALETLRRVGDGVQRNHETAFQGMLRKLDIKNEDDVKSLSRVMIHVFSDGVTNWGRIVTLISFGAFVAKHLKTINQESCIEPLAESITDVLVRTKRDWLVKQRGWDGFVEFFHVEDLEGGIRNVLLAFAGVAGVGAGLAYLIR
Method: The dose-dependent inhibition by the compounds described in this invention of the interaction between MCL-1 and the BH3 domain of Noxa (both human) was determined using a steady state binding competition assay with time-resolved fluorescence energy transfer (TR-FRET) readout. […] The MBP-MCL-1 was purchased from Beryllium (Bedford, Mass., USA). The expression and purification of this protein construct has been described elsewhere (DOI:10.1371/journal.pone.0125010). The Noxa BH3-derived peptide can be obtained from e.g. Biosyntan (Berlin, Germany).
For that, 100-fold concentrated DMSO solutions were prepared by serial dilutions (1:3.4) of a 2 mM stock solution in a clear, 384-well microtiter plate (Greiner Bio-One, Frickenhausen, Germany). From there, 50 nl were transferred in a dark test plate (Greiner Bio-One, Frickenhausen, Germany). […] This was followed by a 10-minute incubation step at 22° C. for pre-equilibration of the putative complex between MBP-MCL-1 and the compounds.
The mixture was incubated in the dark for one hour at 22° C. and then overnight at 4° C.
The resulting data (ratio) were normalized, taking 0% inhibition as the mean value of control measurements (usually 32 data points) where all reagents were included. In this case 50 nl DMSO were used instead of compounds. […] IC50 values were determined by regression analysis based on a 4 parameter equation (minimum, maximum, IC50, Hill; Y=Max+(Min−Max)/(1+(X/IC50)^Hill) using the Screener Software (Genedata).

MV-4-11 = experiment: Antiproliferation assay 7, MV-4-11; type: cell-based; conditions: MV-4-11 cells, CellTiter-Glo, read-out: Antiproli MV-4-11 IC50 median
Outline: as §1

AMO-1 = experiment: Antiproliferation assay 7, AMO-1; type: cell-based; conditions: AMO-1 cells, CellTiter-Glo, read-out: Antiproli AMO-1 IC50 median
Outline: as §1

SUDHL10 [6] = experiment: Induction of cytotoxicity (Assay 6), SUDHL10
HMC-1-8 = experiment: Antiproliferation assay 7, HMC-1-8; type: cell-based; conditions: HMC-1-8 cells, CellTiter-Glo, read-out: Antiproli HMC-1-8 IC50 median
Method: as §2, §3, §4, §5, §6

[7] = Homo sapiens, SU-DHL-5, 3 h, Caspase-Glo 3/7, read-out: Caspase SUDHL5 EC50 (median)
[8] = Homo sapiens, SU-DHL10, 3 h, Caspase-Glo 3/7, read-out: Caspase SUDHL10 EC50 (median)
[9] = Homo sapiens, SU-DHL-5, 5 h, read-out: Cytotox SUDHL5 IC50 (median), SUDHL5 cells, 5 hours, CellTiter-Glo
[10] = Homo sapiens, SU-DHL10, 5 h, read-out: Cytotox SUDHL10 IC50 (median), SUDHL10 cells, 5 hours, CellTiter-Glo
[11] = 3 hours, Caspase-Glo 3/7, read-out: Caspase SUDHL5 EC50 (median)
[12] = 3 hours, Caspase-Glo 3/7, read-out: Caspase SUDHL10 EC50 (median)
[13] = read-out: Cytotox SUDHL5 IC50 (median), SUDHL5 cells, 5 hours, CellTiter-Glo
[14] = read-out: Cytotox SUDHL10 IC50 (median), SUDHL10 cells, 5 hours, CellTiter-Glo

SMILES | EC50 (SUDHL5 [1]; [7]) | EC50 (SUDHL10 [2]; [8]) | IC50 (SUDHL5 [3]; Homo sapiens, SU-DHL-5, 72 h) | IC50 (SUDHL10 [4]) | IC50 (MCL-1) | IC50 (MV-4-11; Homo sapiens, MV4-11, 72 h) | EC50 (SUDHL5 [1]; [11]) | EC50 (SUDHL10 [2]; [12]) | IC50 (SUDHL5 [3]; 72 hours) | IC50 (MV-4-11; 72 hours) | IC50 (SUDHL5 [5]; [9]) | IC50 (AMO-1; Homo sapiens, AMO1, 72 h) | IC50 (SUDHL10 [6]; [10]) | IC50 (HMC-1-8; 72 h) | IC50 (AMO-1; 72 hours) | IC50 (SUDHL5 [5]; [13]) | IC50 (SUDHL10 [6]; [14]) | IC50 (HMC-1-8; 72 hours)
Cc1nn(C)c2c1-c1c(Cl)ccc3c(CCCOc4cccc5ccccc45)c(C(=O)O)n(c13)C/C=C\COC2 (racemic) [Example 1, (rac)-(11Z)-4-chloro-1,3-dimethyl-7-[3-(naphthalen-1-yloxy)propyl]-1,10,13,15-tetrahydropyrazolo[4′,3′:9,10][1,6]oxazacycloundecino[8,7,6-hi]indole-8-carboxylic Acid] | 2900 nM | 5500 nM | 5700 nM | 5700 nM |  |  |  |  |  |  | 2900 nM |  |  |  |  |  |  | 
CCc1c2c(nn1C)N(CCC1CCOCC1)CCCCCn1c(C(=O)O)c(CCCOc3cccc4cc(F)ccc34)c3ccc(Cl)c-2c31 (racemic) [Example 80, (rac)-4-chloro-3-ethyl-7-{3-[(6-fluoronaphthalen-1-yl)oxy]propyl}-2-methyl-15-[2-(oxan-4-yl)ethyl]-10,11,12,13,14,15-hexahydro-2H-pyrazolo[4′,3′:4,5][1,6]diazacycloundecino[3,2,1-hi]indole-8-carboxylic Acid] | 400 nM | 600 nM | 410 nM |  | 2 nM |  |  |  |  |  | 500 nM | 270 nM | 530 nM | 4000 nM |  |  |  | 
Cc1c2c(nn1C)OCCCCCn1c(C(=O)O)c(CCCOc3cccc4cc(F)ccc34)c3ccc(Cl)c-2c31 (single isomer, unassigned; enantiomer 1) [Example 84, 4-chloro-7-{3-[(6-fluoronaphthalen-1-yl)oxy]propyl}-2,3-dimethyl-11,12,13,14-tetrahydro-2H,10H-pyrazolo[3′,4′:2,3][1,6]oxazacycloundecino[4,5,6-hi]indole-8-carboxylic Acid—Enantiomer 1] | 1000 nM | 1300 nM | 1300 nM |  | 1.9 nM |  |  |  |  |  | 1100 nM | 230 nM | 1500 nM | 12000 nM |  |  |  | 
Cc1c2c(nn1C)CN(C)CCCCn1c(C(=O)O)c(CCCOc3cccc4cc(F)ccc34)c3ccc(Cl)c-2c31 (single isomer, unassigned; enantiomer 2) [Example 32, (−)-4-chloro-7-{3-[(6-fluoronaphthalen-1-yl)oxy]propyl}-2,3,14-trimethyl-10,11,12,13,14,15-hexahydro-2H-pyrazolo[3′,4′:8,9][1,6]diazacycloundecino[10,11,1-hi]indole-8-carboxylic acid-N-ethylethanamine Salt (Enantiomer 2)] |  |  |  |  | 26 nM |  | 11000 nM | 25000 nM | 6000 nM | 14000 nM |  |  |  |  | 19600 nM | 9300 nM | 14000 nM | 
Cc1c2c(nn1C)COCC1CC1Cn1c(C(=O)O)c(CCCOc3cccc4ccccc34)c3ccc(Cl)c-2c31 (single isomer, unassigned; stereoisomer 2) [Example 66, (9aR,10aS or 9aS, 10aR)-3-chloro-4,5-dimethyl-14-{3-[(naphthalen-1-yl)oxy]propyl}-5,7,9a, 10,10a, 11-hexahydro-9H-cyclopropa[3,4]pyrazolo[4′,3′:9,10][1,6]oxazacycloundecino-[8,7,6-hi]indole-13-carboxylic Acid—Stereoisomer 2] |  |  |  |  | 1.7 nM |  | 550 nM | 3500 nM |  |  |  |  |  |  | 1520 nM | 910 nM | 1400 nM | 

The next lines start with results.

EC50 (SUDHL5 [1]; [7]) | EC50 (SUDHL10 [2]; [8]) | IC50 (SUDHL5 [3]; Homo sapiens, SU-DHL-5, 72 h) | IC50 (SUDHL10 [4]) | IC50 (MCL-1) | IC50 (MV-4-11; Homo sapiens, MV4-11, 72 h) | EC50 (SUDHL5 [1]; [11]) | EC50 (SUDHL10 [2]; [12]) | IC50 (SUDHL5 [3]; 72 hours) | IC50 (MV-4-11; 72 hours) | SMILES | IC50 (SUDHL5 [5]; [9]) | IC50 (AMO-1; Homo sapiens, AMO1, 72 h) | IC50 (SUDHL10 [6]; [10]) | IC50 (HMC-1-8; 72 h) | IC50 (AMO-1; 72 hours) | IC50 (SUDHL5 [5]; [13]) | IC50 (SUDHL10 [6]; [14]) | IC50 (HMC-1-8; 72 hours)
590 nM | 590 nM | 570 nM |  | 1.7 nM | 918 nM |  |  |  |  | Cc1c2c(nn1CCCN1CCN(C)CC1)COCCCCn1c(C(=O)O)c(CCCOc3cccc4ccccc34)c3ccc(Cl)c-2c31 (racemic) [Example 48, (rac)-4-chloro-3-methyl-2-[3-(4-methylpiperazin-1-yl)propyl]-7-{3-[(naphthalen-1-yl)oxy]propyl}-2,10,11,12,13,15-hexahydropyrazolo[4′,3′:9,10][1,6]oxazacycloundecino[8,7,6-hi]indole-8-carboxylic Acid] | 590 nM | 1490 nM | 1000 nM |  |  |  |  | 
 |  |  |  |  |  | 620 nM | 1600 nM | 950 nM | 1380 nM | CCc1nn(CCN2CCOCC2)c2c1-c1c(Cl)ccc3c(CCCOc4cccc5ccccc45)c(C(=O)O)n(c13)C/C=C\CN(C)C2 (single isomer, unassigned; enantiomer 1) [Example 43, (11Z)-4-chloro-3-ethyl-14-methyl-1-[2-(morpholin-4-yl)ethyl]-7-{3-[(naphthalen-1-yl)oxy]propyl}-10,13,14,15-tetrahydro-1H-pyrazolo[3′,4′:8,9][1,6]diazacycloundecino[10,11,1-hi]indole-8-carboxylic Acid-Ammonia Salt (Enantiomer 1)] |  |  |  | 2060 nM | 1130 nM | 700 nM | 1200 nM | 
 |  |  |  |  |  | 160 nM | 400 nM | 200 nM | 490 nM | CCc1nn(CCN2CCOCC2)c2c1-c1c(Cl)ccc3c(CCCOc4cccc5ccccc45)c(C(=O)O)n(c13)CCCCN(C)C2 (single isomer, unassigned; enantiomer 1) [Example 46, 4-chloro-3-ethyl-14-methyl-1-[2-(morpholin-4-yl)ethyl]-7-{3-[(naphthalen-1-yl)oxy]propyl}-10,11,12,13,14,15-hexahydro-1H-pyrazolo[3′,4′:8,9][1,6]diazacycloundecino[10,11,1-hi]indole-8-carboxylic Acid (Enantiomer 1)] |  |  |  | 819 nM | 180 nM | 180 nM | 300 nM | 
 |  |  |  | 15 nM |  | 13000 nM | 12000 nM | 6700 nM |  | Cc1c2c(nn1CCCN1CCN(C)CC1)COCCCCn1c(C(=O)O)c(CCCOc3cccc4ccccc34)c3ccc(Cl)c-2c31 (single isomer, unassigned; enantiomer 2) [Example 50, (−)-4-chloro-3-methyl-2-[3-(4-methylpiperazin-1-yl)propyl]-7-{3-[(naphthalen-1-yl)oxy]propyl}-2,10,11,12,13,15-hexahydropyrazolo[4′,3′:9,10][1,6]oxazacycloundecino[8,7,6-hi]indole-8-carboxylic Acid (Enantiomer 2)] |  |  |  |  | 13300 nM | 8400 nM | 8600 nM | 12400 nM

Reference: patent publication US11447504B2, “Macrocyclic chlorine substituted indole derivatives” (Bayer Aktiengesellschaft, priority 2017, dated 2022)
